# Reference: the supplement of paper PMC10307832
# Legend:
# Assay in all cases: relative viability (nuclei count vs DMSO), 5 days (fraction); higher = more cells survive
# Bortezomib + Dasatinib = compound: CC(C)C[C@H](NC(=O)[C@H](Cc1ccccc1)NC(=O)c1cnccn1)B(O)O [Bortezomib] + Cc1nc(Nc2ncc(C(=O)Nc3c(C)cccc3Cl)s2)cc(N2CCN(CCO)CC2)n1 [Dasatinib] (partner 0.075 µM)
# Procedure, shortened: (§1)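 Five library-drug doses in √10 steps were combined with a fixed anchor-drug dose, or a single drug was given alone, by pin tool to lung cancer cell lines in 1536-well plates the day after seeding. Nuclei were stained and counted after 5 days. Relative viability is the nuclei count in treated wells over that in vehicle wells, taken as the median of duplicate plates.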
# [1] = compound: CC1=CC(=NN1)NC2=CC(=NC(=N2)/C=C/C3=CC=CC=C3)N4CCN(CC4)C + CS(=O)(=O)N1CCN(Cc2cc3nc(-c4cccc5[nH]ncc45)nc(N4CCOCC4)c3s2)CC1 [Pictilisib] (partner 1 µM)
# Procedure, shortened: as §1
# [2] = compound: CC1=CC(=NN1)NC2=CC(=NC(=N2)/C=C/C3=CC=CC=C3)N4CCN(CC4)C + Nc1ncn([C@H]2C[C@H](O)[C@@H](CO)O2)c(=O)n1 [Decitabine] (partner 2 µM)
# Procedure, shortened: as §1
# Obatoclax + Olaparib = compound: COC1=CC(c2cc3ccccc3[nH]2)=N/C1=C\c1[nH]c(C)cc1C [Obatoclax] + O=C(c1cc(Cc2n[nH]c(=O)c3ccccc23)ccc1F)N1CCN(C(=O)C2CC2)CC1 [Olaparib] (partner 8 µM)
# Procedure, shortened: as §1
Cell Line,relative viability (Bortezomib + Dasatinib; first compound 0.0002 µM),relative viability (Bortezomib + Dasatinib; first compound 0.000632 µM),relative viability (Bortezomib + Dasatinib; first compound 0.002 µM),relative viability (Bortezomib + Dasatinib; first compound 0.006325 µM),relative viability (Bortezomib + Dasatinib; first compound 0.02 µM),relative viability ([1]; first compound 0.08 µM),relative viability ([1]; first compound 0.253 µM),relative viability ([1]; first compound 0.8 µM),relative viability ([1]; first compound 2.53 µM),relative viability ([1]; first compound 8 µM),relative viability ([2]; first compound 0.08 µM),relative viability ([2]; first compound 0.253 µM),relative viability ([2]; first compound 0.8 µM),relative viability ([2]; first compound 2.53 µM),relative viability ([2]; first compound 8 µM),relative viability (Obatoclax + Olaparib; first compound 0.01 µM),relative viability (Obatoclax + Olaparib; first compound 0.03162 µM),relative viability (Obatoclax + Olaparib; first compound 0.1 µM),relative viability (Obatoclax + Olaparib; first compound 0.3162 µM),relative viability (Obatoclax + Olaparib; first compound 1 µM)
LXF-289,0.374,0.151,0.227,0.0474,0.0368,0.802,0.783,0.74,0.442,0.277,0.371,0.383,0.324,0.288,0.248,1.05,1.1,0.972,1.09,1
NCI-H23,0.913,0.976,0.76,0.224,0.108,0.462,0.48,0.382,0.296,0.134,0.302,0.326,0.29,0.177,0.141,0.288,0.369,0.398,0.28,0.206
NCI-H322M,0.26,–,0.253,0.229,0.286,0.456,0.52,0.463,0.219,0.242,0.82,0.719,0.675,0.587,0.298,0.823,0.739,0.961,0.758,0.724
NCI-H358,0.162,0.153,0.164,0.084,0.073,0.296,0.29,0.293,0.138,0.108,0.227,0.188,0.184,0.0835,0.0684,0.543,0.61,0.582,0.384,0.141
NCI-H441,0.646,0.507,0.282,0.136,0.119,0.463,0.554,0.265,0.172,0.0803,0.233,0.222,0.223,0.172,0.12,0.63,0.6,0.527,0.359,0.288
NCI-H460,0.437,0.507,0.514,0.342,0.0305,0.32,0.427,0.383,0.221,0.036,0.531,0.522,0.466,0.0534,0.0287,0.422,0.408,–,0.339,0.14
NCI-H520,0.173,0.207,0.18,0.201,0.179,0.335,0.306,0.251,0.156,0.127,0.382,0.542,0.501,0.191,0.14,0.301,0.323,0.372,0.289,0.208
NCI-H596,0.488,0.519,0.596,0.2,0.184,0.406,0.417,0.388,0.253,0.271,1.17,1.01,0.889,0.659,0.364,0.671,0.675,0.552,0.492,0.458
NCI-H647,0.203,0.156,0.188,0.0197,0.017,0.438,0.48,0.377,0.0644,0.051,0.32,0.429,0.36,0.121,0.122,0.633,0.539,0.547,0.174,0.067
NCI-H661,0.851,0.836,0.773,0.331,0.168,–,0.408,0.346,0.259,0.205,0.551,0.529,0.524,0.302,0.249,0.741,0.729,0.729,0.676,0.516
NCI-H727,0.369,0.38,0.415,0.184,0.147,0.357,0.298,0.34,0.199,0.153,0.515,0.699,0.882,0.793,0.412,0.815,0.883,0.708,0.637,0.697
NCI-H838,0.271,0.261,0.32,0.209,0.16,0.463,0.488,0.471,0.193,0.105,0.487,0.416,0.384,0.208,0.141,0.747,0.79,0.792,0.577,0.255
NCI-H1355,0.69,0.753,0.813,0.18,0.156,0.412,0.36,0.395,0.263,0.118,0.305,0.346,0.351,0.356,0.201,0.76,0.767,0.781,0.667,0.717
NCI-H1395,0.428,0.41,0.427,0.352,0.306,0.668,0.669,0.583,0.379,0.239,0.7,0.771,0.708,0.514,0.291,0.454,0.418,0.444,0.529,0.332
NCI-H1437,0.335,0.374,0.486,0.129,0.11,0.57,0.446,0.416,0.271,0.0592,0.523,0.583,0.555,0.499,0.255,0.634,0.623,0.626,0.623,0.533
NCI-H1650,0.354,0.302,0.181,0.197,0.207,0.519,0.526,0.549,0.113,0.0653,0.333,0.454,0.389,0.297,0.113,0.764,0.742,0.774,0.539,0.229
